Among the test systems are A498 renal; KM12 colon; SNB-75 CNS; M14 melanoma; SK-MEL-5 melanoma; K-562 leukemia; RPMI-8226 leukemia; ACHN renal; 786-0 renal; SK-MEL-28 melanoma.
Common to all, as to experiment: DTP human tumour cell line panel, 48 h

Structures are written as SMILES.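 Where inhibition never reached the appropriate level, the endpoint shown equals the highest concentration tested. Otherwise, values were interpolated linearly from a five-concentration, 48-hour dose response in 96-well plates. The concentration for 50% growth inhibition is given as GI50. The concentration for full growth arrest is given as TGI.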

Usually GI50 stands for the concentration that inhibits growth by half. By TGI is commonly meant the concentration at which net growth stops. Take `COC(=O)[C@]12CC[C@@H](C)[C@H](C)[C@@H]1C1=CC[C@@H]3[C@@]4(C)CC(=O)[C@H](O)[C@@]5(C)COC(=C45)C[C@@]3(C)[C@]1(C)CC2`: the GI50 in the test on A498 renal is 18.5 µM; in the test on KM12 colon, 17.7 µM; with SNB-75 CNS, 16000 nM; in the test on M14 melanoma it was 18.5 µM; in the test with SK-MEL-5 melanoma, 16.6 µM; with K-562 leukemia it was 20500 nM. Besides, the GI50 in the test with RPMI-8226 leukemia is 21 µM; in the test with ACHN renal, 18.3 µM; in the test on 786-0 renal, 17.8 µM; in the test with SK-MEL-28 melanoma it was 19200 nM. Besides, the concentration for total growth inhibition (TGI) with A498 renal turned out to be 33.2 µM; in the test on KM12 colon, 33.8 µM; with SNB-75 CNS, 33 µM; in the test with M14 melanoma, 36.9 µM; with SK-MEL-5 melanoma it was 30.2 µM; in the test on K-562 leukemia it was 41.8 µM. Further, the total growth inhibition concentration (TGI) in the test with RPMI-8226 leukemia came to 45.7 µM; in the test with ACHN renal, 33.9 µM; in the test with 786-0 renal, 34.2 µM; with SK-MEL-28 melanoma it was 38.6 µM.

Consider `CC1(C)CC(=O)C2=C(C1)NC(SSC1=C(C#N)C(c3ccccc3)C3=C(CC(C)(C)CC3=O)N1)=C(C#N)C2c1ccccc1` (stereo not given), for which the GI50 in the test with A498 renal was 30.4 µg/mL; in the test with KM12 colon, 26.2 µg/mL; in the test on SNB-75 CNS it was 29 µg/mL; in the test with M14 melanoma it was 22.5 µg/mL; in the test with SK-MEL-5 melanoma, 27.8 µg/mL; with K-562 leukemia, 42.3 µg/mL. For the same compound, the GI50 with RPMI-8226 leukemia is 46.5 µg/mL; in the test on ACHN renal, 26.1 µg/mL; in the test on 786-0 renal, 28.4 µg/mL; with SK-MEL-28 melanoma, 27.7 µg/mL. The concentration for total growth inhibition (TGI) in the test on A498 renal was 59.8 µg/mL; in the test on KM12 colon it was 49.7 µg/mL; in the test on SNB-75 CNS, 53.3 µg/mL; in the test on M14 melanoma it was 43.6 µg/mL; in the test on SK-MEL-5 melanoma it was 48.7 µg/mL; in the test on K-562 leukemia, 145 µg/mL. The total growth inhibition concentration (TGI) in the test with RPMI-8226 leukemia was found to be 134 µg/mL; in the test on ACHN renal, 46.8 µg/mL; in the test with 786-0 renal, 49.5 µg/mL; in the test on SK-MEL-28 melanoma, 48.6 µg/mL.

For the compound `CC1=C(C(=O)Nc2ccc([N+](=O)[O-])cc2)C(c2ccco2)C(C(=O)Nc2ccc([N+](=O)[O-])cc2)=C(C)N1`, the total growth inhibition concentration (TGI) with A498 renal is 82 µM; in the test with KM12 colon, 33.9 µM; with SNB-75 CNS, above 100 µM; in the test on M14 melanoma, above 100 µM; in the test on SK-MEL-5 melanoma, 93.4 µM; with K-562 leukemia, above 100 µM. Also, the TGI is 25.5 µM in the test on RPMI-8226 leukemia, 53.4 µM in the test with ACHN renal, above 100 µM with 786-0 renal and above 100 µM with SK-MEL-28 melanoma.

As for `O=C1C=C[C@]2(C[C@@H](c3cccc(C(F)(F)F)c3)O[C@@H](c3cccc(C(F)(F)F)c3)O2)O1`, the GI50 is 1.81 µM in the test on A498 renal; 3.09 µM in the test with KM12 colon; 2790 nM in the test on SNB-75 CNS; 4.11 µM with M14 melanoma; 1.8 µM with SK-MEL-5 melanoma; 2680 nM with K-562 leukemia. Also, the GI50 with RPMI-8226 leukemia was 1.12 µM; with ACHN renal, 1.55 µM; in the test with 786-0 renal, 1.35 µM; with SK-MEL-28 melanoma it was 2340 nM. Moreover, the TGI with A498 renal is 9.21 µM; with KM12 colon, 13.9 µM; with SNB-75 CNS, 16.1 µM; with M14 melanoma, 23.7 µM; with SK-MEL-5 melanoma it was 3.72 µM; in the test with K-562 leukemia, above 100 µM. The TGI in the test with RPMI-8226 leukemia came to 5.97 µM; with ACHN renal, 3.1 µM; in the test on 786-0 renal it was 2.95 µM; in the test on SK-MEL-28 melanoma, 6.44 µM.

Consider `Cc1cc(Br)cc(C)c1NC(=O)C(=O)CC(=O)c1sc(-n2nc(-c3ccccc3)cc2-c2ccccc2)nc1C`, for which the total growth inhibition concentration (TGI) in the test with A498 renal, in the test with KM12 colon, in the test with SNB-75 CNS, in the test on M14 melanoma, with K-562 leukemia and in the test with RPMI-8226 leukemia was above 100 µM each time. The TGI in the test with ACHN renal, in the test on 786-0 renal and in the test with SK-MEL-28 melanoma was above 100 µM each time.

Take `O/N=C1/C(=C/c2ccc(F)cc2)CCCC1C(NO)c1ccc(F)cc1` (stereo not given): the total growth inhibition concentration (TGI) was above 100 µM in the test with A498 renal; 52.6 µM in the test on KM12 colon; above 100 µM in the test on SNB-75 CNS; above 100 µM in the test with M14 melanoma; 39.2 µM with SK-MEL-5 melanoma; above 100 µM with K-562 leukemia. In addition, the concentration for total growth inhibition (TGI) in the test on RPMI-8226 leukemia is 49.8 µM; in the test on ACHN renal, above 100 µM; in the test on 786-0 renal, above 100 µM; with SK-MEL-28 melanoma it was above 100 µM.

As to `CCCCCCC(=O)C/C(CCC(=O)N(Cc1ccccc1)Cc1ccccc1)=N\Nc1ccc([N+](=O)[O-])cc1[N+](=O)[O-]`, the TGI with A498 renal was above 100 µM; in the test with KM12 colon, above 100 µM; with SNB-75 CNS, above 100 µM; in the test with M14 melanoma, above 100 µM; with SK-MEL-5 melanoma, above 100 µM; in the test on K-562 leukemia, 58.2 µM. Moreover, the TGI in the test on RPMI-8226 leukemia, in the test on ACHN renal, in the test on 786-0 renal and in the test with SK-MEL-28 melanoma was above 100 µM each time.

`C[C@@H](c1ccc2nccn2c1)n1nnc2ncc(-c3cnn(C)c3)nc21`: the GI50 is 72.8 µM in the test with A498 renal; 43.3 µM with KM12 colon; above 100000 nM with SNB-75 CNS; above 100 µM in the test with M14 melanoma; above 100 µM with SK-MEL-5 melanoma; above 100000 nM with K-562 leukemia. Further, the GI50 is 47.6 µM in the test on RPMI-8226 leukemia, above 100 µM with ACHN renal, above 100 µM in the test with 786-0 renal and above 100000 nM in the test on SK-MEL-28 melanoma. Further, the TGI with A498 renal, in the test on KM12 colon, in the test on SNB-75 CNS, in the test with M14 melanoma, in the test with SK-MEL-5 melanoma and in the test with K-562 leukemia was above 100 µM each time. Besides, the TGI in the test on RPMI-8226 leukemia, in the test on ACHN renal, in the test on 786-0 renal and in the test on SK-MEL-28 melanoma was above 100 µM in each case.

Regarding `C1CCC([PH+](C2CCCCC2)C2CCCCC2[PH+](C2CCCCC2)C2CCCCC2)CC1.[Au].[CH-]1CCCCC1C1CCCC[N-]1` (stereo not given), the GI50 was 0.122 µM in the test with A498 renal; 194 nM in the test with SNB-75 CNS; 0.425 µM in the test on M14 melanoma; 0.179 µM in the test on SK-MEL-5 melanoma; 229 nM in the test with K-562 leukemia; 0.132 µM with RPMI-8226 leukemia. Also, the results for the GI50 with ACHN renal, with 786-0 renal and with SK-MEL-28 melanoma were 1 µM, 0.43 µM and 434 nM, respectively. The total growth inhibition concentration (TGI) was 0.581 µM with A498 renal; 0.833 µM in the test with SNB-75 CNS; 2.27 µM in the test with M14 melanoma; 0.332 µM in the test on SK-MEL-5 melanoma; above 100 µM in the test on K-562 leukemia; above 100 µM with RPMI-8226 leukemia. In addition, the figures for the TGI in the test with ACHN renal, with 786-0 renal and in the test on SK-MEL-28 melanoma were 2.17 µM, 1.9 µM and 1.79 µM, respectively.

With `COc1c(OC(C)=O)ccc(/C=C2\N=C(C)OC2=O)c1[N+](=O)[O-]`, the TGI with A498 renal, in the test with KM12 colon, in the test with SNB-75 CNS, in the test with M14 melanoma, in the test on SK-MEL-5 melanoma and in the test with K-562 leukemia was above 100 µM throughout. Further, the total growth inhibition concentration (TGI) in the test on RPMI-8226 leukemia, with ACHN renal and in the test with 786-0 renal was above 100 µM in each case.

Take `CCOC(=O)Cc1c(Cc2[nH]c(C(=O)OCc3ccccc3)c(CC(=O)OCC)c2CC(=O)OCC)[nH]c(C(=O)OCc2ccccc2)c1CC(=O)OCC`: the TGI in the test on A498 renal, in the test on SNB-75 CNS, with M14 melanoma, with SK-MEL-5 melanoma, with K-562 leukemia and in the test on RPMI-8226 leukemia was above 100 µM in each case. In addition, the total growth inhibition concentration (TGI) in the test on ACHN renal, in the test on 786-0 renal and in the test with SK-MEL-28 melanoma was above 100 µM in each case.

Regarding `O=C(CCCc1c[nH]c2ccccc12)NC1CC(=O)c2c(Br)sc(Br)c21` (stereo not given), the GI50 with A498 renal is 24.2 µM; with KM12 colon it was 23.5 µM; in the test on SNB-75 CNS, 13900 nM; in the test on SK-MEL-5 melanoma, 14.5 µM; in the test with K-562 leukemia, 2010 nM; with RPMI-8226 leukemia, 4.37 µM. Moreover, the GI50 in the test on ACHN renal was 16.5 µM; in the test with 786-0 renal, 19.2 µM; in the test on SK-MEL-28 melanoma, 2770 nM. Also, the TGI in the test on A498 renal is 40.5 µM; in the test on KM12 colon, 71.2 µM; in the test with SNB-75 CNS, 27.7 µM; in the test with SK-MEL-5 melanoma it was 30 µM; in the test on K-562 leukemia it was 5.56 µM; in the test with RPMI-8226 leukemia, above 100 µM. Also, the concentration for total growth inhibition (TGI) came out at 30.4 µM with ACHN renal, 34.9 µM in the test with 786-0 renal and 9.02 µM with SK-MEL-28 melanoma.

In the case of `Cc1ccc(-c2c(C#N)c(N)nc(N3CCOCC3)c2C#N)o1`, the GI50 is 15.5 µM with A498 renal; 46.6 µM in the test with KM12 colon; 2730 nM in the test with SNB-75 CNS; 87.9 µM with M14 melanoma; 40.5 µM in the test with SK-MEL-5 melanoma; 73800 nM in the test on K-562 leukemia. The GI50 in the test with RPMI-8226 leukemia is 49.8 µM; with 786-0 renal, 19.1 µM; in the test with SK-MEL-28 melanoma it was 71300 nM. In addition, the TGI was 54.4 µM with A498 renal; above 100 µM in the test with KM12 colon; 43.9 µM in the test on SNB-75 CNS; above 100 µM with M14 melanoma; above 100 µM in the test with SK-MEL-5 melanoma; above 100 µM in the test with K-562 leukemia. Besides, the TGI in the test with RPMI-8226 leukemia is above 100 µM; in the test on 786-0 renal, 57.9 µM; in the test on SK-MEL-28 melanoma, above 100 µM.

`ClC(=Nc1cccc2ccccc12)N(c1ccccc1)c1ccccc1`: the TGI in the test with A498 renal is above 100 µM; with KM12 colon it was above 100 µM; in the test with SNB-75 CNS, above 100 µM; with M14 melanoma, above 100 µM; with K-562 leukemia it was above 100 µM; in the test on RPMI-8226 leukemia, 89.3 µM. The TGI with ACHN renal, in the test on 786-0 renal and with SK-MEL-28 melanoma was above 100 µM each time.

The values are drawn from PubChem BioAssay (NCI).
